{"source": "patent US20110003760A1", "about": "“ABNORMAL PROTEIN REMOVING METHOD” (priority 2005, published 2011)", "key": {"[1]": {"tested_on": "carbonylated protein in three-dimensional human skin model TESTSKIN (LSE-high)", "assay": "Carbonylated protein in three-dimensional human skin model, Western blotting (DNPH)", "type": "cell-based", "settings": "for Relative photographic density (carbonylated protein): untreated without UV = 100%; for effect on accumulation of carbonylated protein: retinoic acid and retinol at 3 and 10 μM", "method": "(§1) Three-dimensional human skin models are widely used in safety evaluation and effectiveness evaluation as a simulated model of human skin. In this test, TESTSKIN (LSE-high) (Toyobo Co., Ltd.) was used as a three-dimensional human skin model.\n(§2) A culture medium was added to the outer well of TESTSKIN (LSE-high) and cultured for 24 hours. UVA and UVB were irradiated at 10 J/cm^2 and 100 mJ/cm^2, respectively. UVB was irradiated for 2 minutes at a UV intensity of […] using FL20S-E-30/DMR (Clinical Supply Co., Ltd.) to achieve a total irradiation dose of 100 mJ/cm^2. UV intensity was measured using a UV MONITOR MS-211-I (Eiko Instruments Co., Ltd.).\nAs a control group, three-dimensional human skin models not irradiated with UVA or UVB were also prepared.\n(§3) Thereafter, the culture solution was changed and each agent was added by 100 μl onto the tissues in the assay ring, after which the medium was cultured for 36 hours. Thereafter, the tissues were collected and a tissue extraction solution (50 mM Tris-HCl (pH 7.5), 0.5% (Octylphenoxy) polyethoxyethanol (Sigma-Aldrich Corp.)) was added, and then the mixture was homogenized using a Teflon (registered trademark) homogenizer. The homogenized mixture was centrifuged for 30 minutes at 10,000×G to remove tissue fragments, and then dialyzed overnight in distilled water at 4° C. Thereafter, the dialyzed mixture was freeze-dried to remove water. A tissue extraction solution was added to obtain a ×20 concentrate, and this concentrate was used as a three-dimensional skin model extract sample.\nIn this test, 2,4-dinitrophenyl hydrazine (DNPH), which specifically bonds with the carbonyl group in the protein produced by oxidation damage, was used to label carbonylated protein, and then detection was performed using an anti-DNPH antibody that specifically bonds with DNPH.\nThe specific method is explained below. DNPH protein was detected from the protein in the sample by means of Western blotting using a DNPH kit (Oxi Blot™ Protein Oxidation Detection Kit; Chemicon International Inc.). Detection was performed by exposing PVDF membranes to light using a […] (ECL PLUS; Amarsham PLC), and an automatic developer (FPM100; FUJIFILM Medical Co., Ltd.) was used to transfer images. A densitometer (Molecular Dynamics Inc.) was then used to analyze the images to quantify the photographic density. For your information, protein in the sample was reduced and measured as deemed appropriate. In this case, 2-mercaptoethanol was used as a reducing agent and the mixture was heated for 5 minutes at 100° C. to sever the disulfide bond.\nBased on the above results, it is clear that Bletilla striata extract and silybin suppress accumulation of carbonylated protein in a three-dimensional skin model in a manner dependent on the concentration. Accordingly, whether or not a combined use of Bletilla striata extract and silybin would synergistically suppress accumulation of carbonylated protein was evaluated. Also, whether or not a combined use of silybin and soybean saponin, a substance known to have an action to suppress accumulation of carbonylated protein, would synergistically suppress accumulation of carbonylated protein was evaluated. As a result, regardless of whether or not UV light was irradiated using silybin (3 μM) in combination with Bletilla striata extract (0.1%; final extract concentration of 0.001%), or using silybin (3 μM) in combination with soybean saponin (0.0005%), suppressed the accumulation of carbonylated protein synergistically compared to when a sample was treated with silybin (3 μM), Bletilla striata extract (0.1%; final extract concentration of 0.001%) or soybean saponin (0.0005%) alone, as far as accumulation of carbonylated protein in a three-dimensional skin model was concerned (FIG. 7 and Table 7; results of non-reduced protein)."}, "[2]": {"tested_on": "trypsin-like proteasome activity in three-dimensional human skin model", "assay": "Proteasome activity in three-dimensional human skin model", "type": "cell-based", "settings": "for proteasome activity compared to the sample not given any treatment under UV irradiation (75%) / proteasome activity compared to the sample not given any treatment: FIG. 11; for proteasome activity compared to the sample not given any treatment: without UV irradiation; for effect on proteasome activity: retinoic acid and retinol at 3 and 10 μM", "method": "as §1, §2, §3\nProteasome activity was measured using a known method (Hayashi, et al., Mechanisms of Aging and Development, Vol. 102, pp. 55-66, 1998) based on cell extract samples.\nThe specific method is as follows. For the matrix to measure trypsin-like proteasome activity, t-butyloxycarbonyl-L-leucyl-L-arginyl-L-arginyl-L-4-methyl-coumaryl-7-amide (Peptide Institute, Inc.) was used. A cell extract sample containing protein by an equivalent of 10 μg was added to 10.5 μl of a 100 μM matrix solution prepared with 100 mM Tris-HCl (pH 8.0), after which a cell extraction solution was added to a total volume of 50 μl. The obtained solution was treated for 30 minutes at 37° C., after which the fluorescence intensity of the separated 7-amine-4-methyl coumarin was measured at an excitation wavelength (Ex) of 380 nm and absorption waveform (Em) of 440 nm. The result was obtained for each sample type treated with each agent, as an “average ±standard error” calculated from the measured values of three samples.\nBased on the above results, it is clear that Bletilla striata extract and silybin promote proteasome activity in a three-dimensional skin model in a manner dependent on the concentration. Accordingly, whether or not a combined use of Bletilla striata extract and silybin would synergistically promote proteasome activity was evaluated. Also, whether or not a combined use of silybin and soybean saponin, a substance known to have an action to promote proteasome activity, would synergistically promote proteasome activity was evaluated. As a result, regardless of whether or not UV light was irradiated, using silybin (3 μM) in combination with Bletilla striata extract (0.1%; final extract concentration of 0.001%), or using silybin (3 μM) in combination with soybean saponin (0.0005%), promoted proteasome activity synergistically compared to when a sample was treated with silybin (3 μM), Bletilla striata extract (0.1%; final extract concentration of 0.001%) or soybean saponin (0.0005%) alone, as far as promotion of proteasome activity in a three-dimensional skin model was concerned (FIG. 12)."}}, "data": [{"smiles": "CC1=C(/C=C/C(C)=C/C=C/C(C)=C/C(=O)O)C(C)(C)CCC1", "note": "[Retinoic acid, all-trans-retinoic acid]", "values": [{"measurement": "amount of carbonylated protein compared to the sample not given any treatment under UV irradiation", "setting": "[1]; non-reduced protein, 3 μM", "result": "little change"}, {"measurement": "Relative photographic density (carbonylated protein)", "setting": "[1]; non-reduced protein, treatment concentration 3 μM, UV (+)", "result": 305, "unit": "%"}, {"measurement": "Relative photographic density (carbonylated protein)", "setting": "[1]; non-reduced protein, treatment concentration 3 μM, UV (−)", "result": 110, "unit": "%"}, {"measurement": "Relative photographic density (carbonylated protein)", "setting": "[1]; non-reduced protein, treatment concentration 3 μM, UV (−), listed as retinoic acid", "result": "little change"}, {"measurement": "amount of carbonylated protein compared to the sample not given any treatment under UV irradiation", "setting": "[1]; reduced protein, 3 μM", "result": "little change"}, {"measurement": "Relative photographic density (carbonylated protein)", "setting": "[1]; reduced protein, treatment concentration 3 μM, UV (+)", "result": 315, "unit": "%"}, {"measurement": "Relative photographic density (carbonylated protein)", "setting": "[1]; reduced protein, treatment concentration 3 μM, UV (−)", "result": 105, "unit": "%"}, {"measurement": "Relative photographic density (carbonylated protein)", "setting": "[1]; reduced protein, treatment concentration 3 μM, UV (−), listed as retinoic acid", "result": "little change"}, {"measurement": "effect on accumulation of carbonylated protein", "setting": "[1]", "result": "no effect"}, {"measurement": "proteasome activity compared to the sample not given any treatment under UV irradiation (75%)", "setting": "[2]; 3 μM", "result": "little change"}, {"measurement": "proteasome activity compared to the sample not given any treatment", "setting": "[2]; 3 μM", "result": "little change"}, {"measurement": "effect on proteasome activity", "setting": "[2]", "result": "no effect"}]}, {"smiles": "CC1=C(/C=C/C(C)=C/C=C/C(C)=C/CO)C(C)(C)CCC1", "note": "[Retinol, all-trans-retinol]", "values": [{"measurement": "amount of carbonylated protein compared to the sample not given any treatment under UV irradiation", "setting": "[1]; non-reduced protein, 10 μM", "result": "little change"}, {"measurement": "Relative photographic density (carbonylated protein)", "setting": "[1]; non-reduced protein, treatment concentration 10 μM, UV (+)", "result": 315, "unit": "%"}, {"measurement": "Relative photographic density (carbonylated protein)", "setting": "[1]; non-reduced protein, treatment concentration 10 μM, UV (−)", "result": 115, "unit": "%"}, {"measurement": "Relative photographic density (carbonylated protein)", "setting": "[1]; non-reduced protein, treatment concentration 10 μM, UV (−), listed as retinol", "result": "little change"}, {"measurement": "amount of carbonylated protein compared to the sample not given any treatment under UV irradiation", "setting": "[1]; reduced protein, 10 μM", "result": "little change"}, {"measurement": "Relative photographic density (carbonylated protein)", "setting": "[1]; reduced protein, treatment concentration 10 μM, UV (+)", "result": 330, "unit": "%"}, {"measurement": "Relative photographic density (carbonylated protein)", "setting": "[1]; reduced protein, treatment concentration 10 μM, UV (−)", "result": 110, "unit": "%"}, {"measurement": "Relative photographic density (carbonylated protein)", "setting": "[1]; reduced protein, treatment concentration 10 μM, UV (−), listed as retinol", "result": "little change"}, {"measurement": "effect on accumulation of carbonylated protein", "setting": "[1]", "result": "no effect"}, {"measurement": "proteasome activity compared to the sample not given any treatment under UV irradiation (75%)", "setting": "[2]; 10 μM", "result": "little change"}, {"measurement": "proteasome activity compared to the sample not given any treatment", "setting": "[2]; 10 μM", "result": "little change"}, {"measurement": "effect on proteasome activity", "setting": "[2]", "result": "no effect"}]}]}
